From ChEMBL document CHEMBL4619822, “Novel Cyclic Tetramer Compounds as PCSK9 Inhibitors for Treating Metabolic Disorders” (ACS Med Chem Lett, 2020) come the findings set out here.

Sequence of Proprotein convertase subtilisin/kexin type 9 (Homo sapiens) (Q8NBP7 31-152 limits assumed): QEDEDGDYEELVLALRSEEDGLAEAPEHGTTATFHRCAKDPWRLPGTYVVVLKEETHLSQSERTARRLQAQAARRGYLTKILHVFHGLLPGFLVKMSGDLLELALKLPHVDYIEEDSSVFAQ
Sequence of Proprotein convertase subtilisin/kexin type 9 (Homo sapiens) (Q8NBP7 153-692 limits assumed): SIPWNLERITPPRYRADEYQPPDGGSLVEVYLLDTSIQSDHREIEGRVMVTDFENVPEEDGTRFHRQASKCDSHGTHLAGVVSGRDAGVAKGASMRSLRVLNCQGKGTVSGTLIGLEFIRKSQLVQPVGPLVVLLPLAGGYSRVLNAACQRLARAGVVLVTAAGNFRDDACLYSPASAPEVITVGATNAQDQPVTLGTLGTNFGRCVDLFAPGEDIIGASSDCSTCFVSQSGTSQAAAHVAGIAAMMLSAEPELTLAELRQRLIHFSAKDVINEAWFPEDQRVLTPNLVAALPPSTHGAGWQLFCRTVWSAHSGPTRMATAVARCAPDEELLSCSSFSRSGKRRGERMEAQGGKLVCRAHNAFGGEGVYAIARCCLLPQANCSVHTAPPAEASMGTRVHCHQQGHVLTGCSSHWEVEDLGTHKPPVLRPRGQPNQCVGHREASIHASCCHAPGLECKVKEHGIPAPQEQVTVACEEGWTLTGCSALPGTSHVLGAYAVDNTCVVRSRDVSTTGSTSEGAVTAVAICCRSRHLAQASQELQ

The test concerns the target Proprotein convertase subtilisin/kexin type 9 (Homo sapiens) (UniProt Q8NBP7). As to the kind of experiment: Inhibition of human PCSK9 by Alexa Fluor 647 staining based TR-FRET assay relative to control. Background: TR-FRET usually uses a lanthanide donor and a delayed reading to cut background.
Compound `COC[C@@H]1NC(=O)[C@H](C)N(Cc2ncc(Cl)cc2Oc2ccc(-c3cnc(CN(C)C)n3C)cc2)C(=O)C[C@@H](Cc2ccccc2)C(=O)N2CCC[C@@](Cc3ccc(Cl)cc3)(C2)NC1=O` showed an Imax of 103%. The compound `C[C@H]1C(=O)N[C@@H](CO)C(=O)N[C@@]2(Cc3ccc(Cl)cc3)CCCN(C2)C(=O)[C@H](CC2CC2)CC(=O)N1Cc1c(F)cc(Cl)cc1Oc1ccc(-c2cnc(CNC3CCC3)n2C)cc1` came in with an Imax of 100%.

`CNCc1ncc(-c2ccc(Oc3cc(Cl)cc(F)c3CN3C(=O)C[C@@H](CC(F)(F)F)C(=O)N4CCC[C@@](Cc5ccc(Cl)cc5)(C4)N(C)C(=O)[C@H](COC)NC(=O)[C@@H]3C)cc2)n1C` came in with an Imax of 105%. Next, `CNCc1ncc(-c2ccc(Oc3cc(Cl)ccc3CN3C(=O)C[C@@H](Cc4ccccc4)C(=O)N4CCC[C@@](Cc5ccc(Cl)cc5)(C4)NC(=O)[C@H](CO)NC(=O)[C@@H]3C)cc2)n1C`: 105%; `COC[C@@H]1NC(=O)[C@H](C)N(Cc2ccc(Cl)cc2Oc2ccc(-c3cnc(CN(C)C)n3C)nc2)C(=O)C[C@@H](CC(F)(F)F)C(=O)N2CCC[C@@](Cc3ccc(Cl)cc3)(C2)N(C)C1=O`: 113%; `C[C@H]1C(=O)N[C@@H](CO)C(=O)N[C@@]2(Cc3ccc(Cl)cc3)CCCN(C2)C(=O)[C@H](Cc2ccccc2)CC(=O)N1Cc1ccc(Cl)c(F)c1Oc1ccc(-c2cnc(CN(C)C)n2C)cc1`: 101%.
